Measured values taken from paper PMC10753557, “Design and Evaluation of Synthesized Pyrrole Derivatives as Dual COX-1 and COX-2 Inhibitors Using FB-QSAR Approach” (ACS Omega, 2023).

Key:
COX-1 = target: T1, COX-1 (Ovis aries, UniProt P05979); assay: COX-1 fluorometric inhibitor screening kit (BioVision); type: biochemical
T1 construct: purchased
T1 sequence (P05979 25-600): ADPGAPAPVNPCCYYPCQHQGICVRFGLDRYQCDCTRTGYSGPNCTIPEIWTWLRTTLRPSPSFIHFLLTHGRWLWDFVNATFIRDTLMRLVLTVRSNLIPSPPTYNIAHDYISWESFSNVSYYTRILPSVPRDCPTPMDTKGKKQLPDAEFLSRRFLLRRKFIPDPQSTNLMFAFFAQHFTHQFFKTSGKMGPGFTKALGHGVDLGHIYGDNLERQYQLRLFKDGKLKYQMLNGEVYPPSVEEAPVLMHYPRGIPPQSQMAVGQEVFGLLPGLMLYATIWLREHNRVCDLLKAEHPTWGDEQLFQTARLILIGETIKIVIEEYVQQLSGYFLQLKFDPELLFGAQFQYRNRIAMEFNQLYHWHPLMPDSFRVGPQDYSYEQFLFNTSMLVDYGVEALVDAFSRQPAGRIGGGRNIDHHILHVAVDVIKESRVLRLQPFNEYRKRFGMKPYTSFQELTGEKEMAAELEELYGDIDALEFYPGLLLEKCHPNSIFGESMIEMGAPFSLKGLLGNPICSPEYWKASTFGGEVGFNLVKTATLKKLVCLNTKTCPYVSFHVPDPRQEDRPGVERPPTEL
Protocol: (§1) To conduct the inhibition assay, the kit components were prepared as follows: The COX-1/COX-2 enzyme solutions were created by reconstituting the lyophilized powder with 110 μL of ddH2O. A diluted COX cofactor was formed by combining a COX assay buffer (398 μL) and a COX cofactor (2 μL). The arachidonic acid/NaOH solution was diluted with 5 μL of arachidonic acid, 5 μL of NaOH, and 90 μL of ddH2O. These solutions were combined to generate the reaction mixture (80 μL) for each well, consisting of the COX assay buffer (76 μL), the COX probe (1 μL), the diluted COX cofactor (2 μL), and the COX-1/COX-2 enzyme solution (1 μL). Test compounds (10 μL) were added, followed by incubation for 5–10 min at 25 °C. To […] the reaction, 10 μL of diluted arachidonic acid/NaOH solution was added. […] The assay was performed in quadruplicate with a blank and control, testing all inhibitor concentrations. The mean ± standard deviation (SD) of the percentage inhibition results were calculated, and IC50 values were determined using GraphPad PRISM software (version 5.0) by plotting the percentage inhibition against the log concentration. Additionally, the selectivity index (SI) was calculated by dividing IC50(COX-1) by IC50(COX-2).

COX-2 = target: T2, COX-2 (Homo sapiens, UniProt P35354); assay: COX-2 fluorometric inhibitor screening kit (BioVision); type: biochemical
T2 construct: purchased BioVision
T2 sequence (P35354 18-604): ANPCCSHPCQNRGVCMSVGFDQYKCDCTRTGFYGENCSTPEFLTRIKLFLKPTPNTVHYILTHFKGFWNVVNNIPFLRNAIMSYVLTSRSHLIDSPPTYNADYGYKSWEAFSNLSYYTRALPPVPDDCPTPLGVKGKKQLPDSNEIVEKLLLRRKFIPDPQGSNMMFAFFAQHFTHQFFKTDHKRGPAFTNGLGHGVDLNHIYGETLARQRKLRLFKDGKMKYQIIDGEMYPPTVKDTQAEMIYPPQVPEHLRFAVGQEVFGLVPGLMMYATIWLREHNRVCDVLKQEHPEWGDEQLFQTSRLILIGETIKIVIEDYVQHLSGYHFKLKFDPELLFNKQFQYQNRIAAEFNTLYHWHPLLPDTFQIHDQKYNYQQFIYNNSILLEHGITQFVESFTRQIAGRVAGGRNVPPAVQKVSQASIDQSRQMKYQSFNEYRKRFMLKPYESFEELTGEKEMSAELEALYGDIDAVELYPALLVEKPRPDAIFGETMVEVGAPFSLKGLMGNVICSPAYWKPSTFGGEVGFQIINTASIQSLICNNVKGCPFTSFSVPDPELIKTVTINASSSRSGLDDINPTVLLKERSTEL
Protocol: as §1

[1] = 1 μM compound, mean ± SD, quadruplicate
[2] = 10 μM compound, mean ± SD, quadruplicate

Row | SMILES | COX-1% Inhibition 1 μM (COX-1; [1]) | COX-1% Inhibition 10 μM (COX-1; [2]) | experimental activity on COX-1 (pIC50) (COX-1; BioVision's kit protocol) | IC50 (COX-1; fluorometric kit) | COX-2% Inhibition 1 μM (COX-2; [1]) | COX-2% Inhibition 10 μM (COX-2; [2]) | experimental activity on COX-2 (pIC50) (COX-2; BioVision's kit protocol) | COX subtype selectivity (COX-2; COX-1 vs COX-2, classification in conclusions) | IC50 (COX-2; fluorometric kit) | inhibition at 1 µM (COX-2; read-out: COX-2% Inhibition 1 μM) | inhibition at 10 µM (COX-2; read-out: COX-2% Inhibition 10 μM)
1 | CCOC(=O)c1cc(-c2c(OC)cccc2OC)n(CC(=O)O)c1C [Compound 4g] | 84.517 ± 2.036% | 92.366 ± 2.731% | 6.93 | 117 ± 5 nM | 83.033 ± 1.878% | 90.967 ± 2.022% | 6.7258 | nonselective inhibitors | 188 ± 8 nM |  | 
2 | CS(=O)(=O)Nc1ccc([N+](=O)[O-])cc1Oc1ccccc1 [nimesulide, reference compound] |  |  |  |  |  |  |  |  |  | 89.6 ± 1.05% | 97.8 ± 1.21%
